Assay results: patent US12655116B2, “Substituted isophthalic acid diamides” (Bayer Aktiengesellschaft, priority 2020, dated 2026)

Legend:
ABUTH [1] = assay: Post-emergence herbicidal action against ABUTH; format: in vivo, Abutilon theophrasti; conditions: visual assessment about 3 weeks after treatment vs untreated controls
Procedure, shortened: (§1)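 Herbicidal action is a visual percentage rating (0% = as untreated control, 100% = plants dead) made roughly 3 weeks after treatment. Plants were grown in sandy loam in the greenhouse and treated at the one-leaf stage, 2 to 3 weeks post-sowing. Treatment was a foliar spray of wettable-powder or emulsion-concentrate formulations at 600 to 800 l/ha water plus 0.2% wetting agent.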

PHBPU [2] = assay: Post-emergence herbicidal action against PHBPU; format: in vivo, Pharbitis purpurea
Procedure, shortened: as §1

ABUTH [3] = assay: Pre-emergence herbicidal action against ABUTH; format: in vivo, Abutilon theophrasti; conditions: for Pre-emergence action against ABUTH (herbicidal activity): 80 g/ha, scored visually after 3 weeks vs untreated controls (100% = plants have died, 0% = like control plants); for Pre-emergence action against ABUTH (herbicidal activity in percent): dosage 20 g/ha, scored visually after 3 weeks vs untreated controls, 100% = plants have died, 0% = like control plants
Procedure, shortened: (§2)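 Sandy loam pots, seeds covered with soil, then surface-treated with WP or EC formulations at 600–800 l/ha water plus 0.2% wetting agent. Greenhouse, 3 weeks. Percent damage vs untreated controls.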

ECHCG [4] = assay: Pre-emergence herbicidal action against ECHCG; format: in vivo, Echinochloa crus-galli
Procedure, shortened: as §2

ALOMY [5] = assay: Post-emergence herbicidal action against ALOMY; format: in vivo, Alopecurus myosuroides; conditions: dosage 20 g/ha, visual assessment about 3 weeks after treatment vs untreated controls
Procedure, shortened: as §1

MATIN [6] = assay: Pre-emergence herbicidal action against MATIN; format: in vivo, Matricaria inodora
Procedure, shortened: as §2

AVEFA [7] = assay: Post-emergence herbicidal action against AVEFA; format: in vivo, Avena fatua; conditions: visual assessment about 3 weeks after treatment, 100% = plants have died, 0% = like control plants
Procedure, shortened: as §1

ALOMY [8] = assay: Pre-emergence herbicidal action against ALOMY; format: in vivo, Alopecurus myosuroides; conditions: for Pre-emergence action against ALOMY (herbicidal activity): 80 g/ha, scored visually after 3 weeks vs untreated controls (100% = plants have died, 0% = like control plants)
Procedure, shortened: as §2

SETVI [9] = assay: Pre-emergence herbicidal action against SETVI; format: in vivo, Setaria viridis
Procedure, shortened: as §2

MATIN [10] = assay: Post-emergence herbicidal action against MATIN; format: in vivo, Matricaria inodora; conditions: dosage 20 g/ha
Procedure, shortened: as §1

AMARE [11] = assay: Post-emergence herbicidal action against AMARE; format: in vivo, Amaranthus retroflexus; conditions: 20 g/ha, visual assessment about 3 weeks after treatment, 100% = plants have died, 0% = like control plants
Procedure, shortened: as §1

SETVI [12] = assay: Post-emergence herbicidal action against SETVI; format: in vivo, Setaria viridis
Procedure, shortened: as §1

ECHCG [13] = assay: Post-emergence herbicidal action against ECHCG; format: in vivo, Echinochloa crus-galli
Procedure, shortened: as §1

PHBPU [14] = assay: Pre-emergence herbicidal action against PHBPU; format: in vivo, Pharbitis purpurea; conditions: dosage 80 g/ha
Procedure, shortened: as §2

AMARE [15] = assay: Pre-emergence herbicidal action against AMARE; format: in vivo, Amaranthus retroflexus
Procedure, shortened: as §2

VIOTR [16] = assay: Post-emergence herbicidal action against VIOTR; format: in vivo, Viola tricolor
Procedure, shortened: as §1

VERPE [17] = assay: Post-emergence herbicidal action against VERPE; format: in vivo, Veronica persica; conditions: 20 g/ha
Procedure, shortened: as §1

POLCO = assay: Pre-emergence herbicidal action against POLCO; format: in vivo, Polygonum convolvulus; conditions: dosage 80 g/ha
Procedure, shortened: as §2

VERPE [18] = assay: Pre-emergence herbicidal action against VERPE; format: in vivo, Veronica persica
Procedure, shortened: as §2

VIOTR [19] = assay: Pre-emergence herbicidal action against VIOTR; format: in vivo, Viola tricolor
Procedure, shortened: as §2

AVEFA [20] = assay: Pre-emergence herbicidal action against AVEFA; format: in vivo, Avena fatua; conditions: 80 g/ha, pre-emergence
Procedure, shortened: as §2

DIGSA [21] = assay: Post-emergence herbicidal action against DIGSA; format: in vivo, Digitaria sanguinalis
Procedure, shortened: as §1

DIGSA [22] = assay: Pre-emergence herbicidal action against DIGSA; format: in vivo, Digitaria sanguinalis
Procedure, shortened: as §2

[23] = 20 g/ha, scored visually after 3 weeks vs untreated controls, 100% = plants have died, 0% = like control plants
[24] = 80 g/ha, scored visually after 3 weeks vs untreated controls (100% = plants have died, 0% = like control plants)

Row | Structure (SMILES) | Post-emergence action against ABUTH in % (ABUTH [1]; dosage 5 g/ha) [%] | Post-emergence action against ABUTH in % (ABUTH [1]; dosage 20 g/ha) [%] | Post-emergence action against PHBPU in % (PHBPU [2]; dosage 5 g/ha) [%] | Post-emergence action against PHBPU in % (PHBPU [2]; dosage 20 g/ha) [%] | Pre-emergence action against ABUTH (herbicidal activity) (ABUTH [3]) [%] | Pre-emergence action against ABUTH (herbicidal activity in percent) (ABUTH [3]) [%] | Pre-emergence action against ECHCG in % (ECHCG [4]; 80 g/ha) [%] | Post-emergence action against ALOMY in % (ALOMY [5]) [%] | Pre-emergence action against MATIN in % (MATIN [6]; dosage 20 g/ha) [%] | Pre-emergence action against MATIN in % (MATIN [6]; dosage 80 g/ha) [%] | Post-emergence action at 20 g/ha against AVEFA in % (AVEFA [7]) [%] | Pre-emergence action against ALOMY (herbicidal activity) (ALOMY [8]) [%] | Pre-emergence action against SETVI in % (SETVI [9]; dosage 20 g/ha) [%] | Pre-emergence action against SETVI in % (SETVI [9]; dosage 80 g/ha) [%] | Post-emergence action at 20 g/ha against AMARE in % (AMARE [11]) [%] | Post-emergence action against SETVI in % (SETVI [12]; dosage 20 g/ha) [%] | Post-emergence action against ECHCG in % (ECHCG [13]; dosage 5 g/ha) [%] | Post-emergence action against ECHCG in % (ECHCG [13]; dosage 20 g/ha) [%] | Pre-emergence action against PHBPU in % (PHBPU [14]) [%] | Pre-emergence action against AMARE in % (AMARE [15]; [23]) [%] | also measured
1 | CSc1c(C(=O)Nc2nnnn2C)ccc(C(F)(F)F)c1C(=O)NCC(F)F [Example 1-86] | 100 | 100 | 80 | 90 | 100 | 100 | 100 | 100 | 100 | 100 | 100 | 100 | 80 | 100 | 100 | 80 | 80 | 100 | 80 | 100 | Pre-emergence action against ECHCG in % (ECHCG [4]; 20 g/ha): 90%; Post-emergence action against MATIN in % (MATIN [10]): 80%; Pre-emergence action against AMARE in % (AMARE [15]; [24]): 100%; Post-emergence action against VIOTR in % (VIOTR [16]; 5 g/ha): 90%; Post-emergence action against VIOTR in % (VIOTR [16]; 20 g/ha): 100%; Post-emergence action against VERPE in % (VERPE [17]): 90%; Pre-emergence action against POLCO in % (POLCO): 80%; Pre-emergence action against VERPE in % (VERPE [18]; dosage 80 g/ha): 100%; Pre-emergence action against VIOTR in % (VIOTR [19]; dosage 20 g/ha): 100%; Pre-emergence action against VIOTR in % (VIOTR [19]; dosage 80 g/ha): 100%; Pre-emergence action against AVEFA in % (AVEFA [20]): 100%
2 | CCn1nnnc1NC(=O)c1ccc(C(F)(F)F)c(C(=O)NCCOC)c1C [Example 2-34] | 90 | 90 | 90 | 100 | 100 | 80 | 90 | 100 | 90 | 100 | 80 | 90 | 100 | 100 | 100 | 90 | 90 | 100 | 80 | 90 | Post-emergence action against DIGSA in % (DIGSA [21]; 5 g/ha): 80%; Post-emergence action against DIGSA (DIGSA [21]; 20 g/ha): 100%; Post-emergence action at 5 g/ha against AVEFA in % (AVEFA [7]; 5 g/ha): 80%; Pre-emergence action against ALOMY (ALOMY [8]; 20 g/ha, scored visually after 3 weeks, 100% = plants have died, 0% = like control plants): 80%; Pre-emergence action against DIGSA in % (DIGSA [22]; dosage 20 g/ha): 100%; Pre-emergence action against DIGSA in % (DIGSA [22]; dosage 80 g/ha): 100%; Post-emergence action against SETVI in % (SETVI [12]; dosage 5 g/ha): 80%; Pre-emergence action against AMARE in % (AMARE [15]; [24]): 100%; Post-emergence action against VERPE in % (VERPE [17]): 80%; Pre-emergence action against POLCO in % (POLCO): 90%; Pre-emergence action against VERPE in % (VERPE [18]; dosage 20 g/ha): 90%; Pre-emergence action against VERPE in % (VERPE [18]; dosage 80 g/ha): 90%; Pre-emergence action against VIOTR in % (VIOTR [19]; dosage 20 g/ha): 100%; Pre-emergence action against VIOTR in % (VIOTR [19]; dosage 80 g/ha): 100%; Pre-emergence action against AVEFA in % (AVEFA [20]): 90%
